Results published in PubChem BioAssay (NCI).
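Where inhibition never reached the appropriate level, the endpoint shown equals the highest concentration tested. Otherwise, values were interpolated linearly from a five-concentration, 48-hour dose response in 96-well plates. GI50 = concentration required for 50% inhibition of growth. TGI: concentration producing complete growth inhibition.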

What was measured:
Assay in all cases: inhibition of tumour cell growth, NCI panel, 48 h
[1] = tested on: 786-0 renal
[2] = tested on: A498 renal
[3] = tested on: A549 NSCLC
[4] = tested on: ACHN renal
[5] = tested on: BT-549 breast
[6] = tested on: CAKI-1 renal
[7] = tested on: CCRF-CEM leukemia
[8] = tested on: COLO 205 colon
[9] = tested on: DU-145 prostate
[10] = tested on: EKVX NSCLC
[11] = tested on: HCC-2998 colon
[12] = tested on: HCT-116 colon
[13] = tested on: HCT-15 colon
[14] = tested on: HL-60(TB) leukemia
[15] = tested on: HOP-62 NSCLC
[16] = tested on: HOP-92 NSCLC
[17] = tested on: HS 578T breast
[18] = tested on: HT29 colon
[19] = tested on: IGROV1 ovarian
[20] = tested on: K-562 leukemia
[21] = tested on: KM12 colon
[22] = tested on: LOX IMVI melanoma
[23] = tested on: M14 melanoma
[24] = tested on: MALME-3M melanoma
[25] = tested on: MCF7 breast
[26] = tested on: MDA-MB-231 breast
[27] = tested on: MDA-MB-435
[28] = tested on: MOLT-4 leukemia
[29] = tested on: NCI-H226 lung
[30] = tested on: NCI-H23 lung
[31] = tested on: NCI-H460 lung
[32] = tested on: NCI-H522 lung
[33] = tested on: NCI/ADR-RES ovarian
[34] = tested on: OVCAR-3 ovarian
[35] = tested on: OVCAR-4 ovarian
[36] = tested on: OVCAR-5 ovarian
[37] = tested on: OVCAR-8 ovarian
[38] = tested on: PC-3 prostate
[39] = tested on: RPMI-8226 leukemia
[40] = tested on: RXF 393 renal
[41] = tested on: SF-268 CNS
[42] = tested on: SF-295 CNS
[43] = tested on: SF-539 CNS
[44] = tested on: SK-MEL-2 melanoma
[45] = tested on: SK-MEL-28 melanoma
[46] = tested on: SK-MEL-5 melanoma
[47] = tested on: SK-OV-3 ovarian
[48] = tested on: SN12C renal
[49] = tested on: SNB-19 CNS
[50] = tested on: SNB-75 CNS
[51] = tested on: SR leukemia
[52] = tested on: SW-620 colon
[53] = tested on: T-47D breast
[54] = tested on: TK-10 renal
[55] = tested on: U251 CNS
[56] = tested on: UACC-257 melanoma
[57] = tested on: UACC-62 melanoma
[58] = tested on: UO-31 renal

Structure (SMILES): CN1CCC2(CC1)C(=O)Nc1cc(NC(=O)c3ccc4c(c3)C[C@@H]3C(C)(C)[C@H](O)[C@H](F)C[C@@]3(C)O4)ccc12
- GI50 [1]: 0.249 µM
- TGI [1]: 14.9 µM
- GI50 [2]: 0.135 µM
- TGI [2]: 1.09 µM
- GI50 [3]: 2.74 µM
- TGI [3]: 37.2 µM
- GI50 [4]: 8.59 µM
- TGI [4]: > 100 µM
- GI50 [5]: 0.0691 µM
- TGI [5]: 20.1 µM
- GI50 [6]: 1.34 µM
- TGI [6]: 18.7 µM
- GI50 [7]: 0.092 µM
- TGI [7]: > 100 µM
- GI50 [8]: 1.84 µM
- TGI [8]: 7.36 µM
- GI50 [9]: 10.6 µM
- TGI [9]: 57.6 µM
- GI50 [10]: 29.8 µM
- TGI [10]: > 100 µM
- GI50 [11]: 14.2 µM
- TGI [11]: 48.3 µM
- GI50 [12]: 1.35 µM
- TGI [12]: 17.2 µM
- GI50 [13]: 11 µM
- TGI [13]: 45.8 µM
- GI50 [14]: 0.0842 µM
- TGI [14]: 13.7 µM
- GI50 [15]: 1.04 µM
- TGI [15]: 23 µM
- GI50 [16]: 1.97 µM
- TGI [16]: 31.1 µM
- GI50 [17]: 0.0232 µM
- TGI [17]: 2.24 µM
- GI50 [18]: 2.94 µM
- TGI [18]: 36.8 µM
- GI50 [19]: 13.1 µM
- TGI [19]: > 100 µM
- GI50 [20]: 0.201 µM
- TGI [20]: > 100 µM
- GI50 [21]: 1.38 µM
- TGI [21]: 17.7 µM
- GI50 [22]: 0.55 µM
- TGI [22]: 12.5 µM
- GI50 [23]: 0.549 µM
- TGI [23]: 4.37 µM
- GI50 [24]: 1.49 µM
- TGI [24]: 9.79 µM
- GI50 [25]: 0.0925 µM
- TGI [25]: 21.4 µM
- GI50 [26]: 3.36 µM
- TGI [26]: 21.1 µM
- GI50 [27]: 1.31 µM
- TGI [27]: 13 µM
- GI50 [28]: 0.0342 µM
- TGI [28]: 1.5 µM
- GI50 [29]: 14 µM
- TGI [29]: 49.3 µM
- GI50 [30]: 10.6 µM
- TGI [30]: 42.5 µM
- GI50 [31]: 0.684 µM
- TGI [31]: 25.4 µM
- GI50 [32]: 10.8 µM
- TGI [32]: 33.2 µM
- GI50 [33]: > 100 µM
- TGI [33]: > 100 µM
- GI50 [34]: 18.5 µM
- TGI [34]: 66.8 µM
- GI50 [35]: 25.9 µM
- TGI [35]: > 100 µM
- GI50 [36]: 12.3 µM
- TGI [36]: > 100 µM
- GI50 [37]: 26.6 µM
- TGI [37]: > 100 µM
- GI50 [38]: 0.117 µM
- TGI [38]: > 100 µM
- GI50 [39]: 0.0272 µM
- TGI [39]: 10.8 µM
- GI50 [40]: 0.0497 µM
- TGI [40]: 10.6 µM
- GI50 [41]: 6.68 µM
- TGI [41]: 31.9 µM
- GI50 [42]: 0.0495 µM
- TGI [42]: 0.256 µM
- GI50 [43]: 0.0565 µM
- TGI [43]: 15.9 µM
- GI50 [44]: 11.3 µM
- TGI [44]: 32.3 µM
- GI50 [45]: 1.53 µM
- TGI [45]: 14.5 µM
- GI50 [46]: 2.62 µM
- TGI [46]: 12.3 µM
- GI50 [47]: 1.71 µM
- TGI [47]: 27.3 µM
- GI50 [48]: 13.2 µM
- TGI [48]: > 100 µM
- GI50 [49]: 1.97 µM
- TGI [49]: 22 µM
- GI50 [50]: 0.0373 µM
- TGI [50]: 4.8 µM
- GI50 [51]: 0.0514 µM
- TGI [51]: 88.2 µM
- GI50 [52]: 0.588 µM
- TGI [52]: 11.5 µM
- GI50 [53]: 5.67 µM
- TGI [53]: 28.8 µM
- GI50 [54]: 21.4 µM
- TGI [54]: 76.3 µM
- GI50 [55]: 0.0472 µM
- TGI [55]: 16.4 µM
- GI50 [56]: 3.21 µM
- TGI [56]: 21.2 µM
- GI50 [57]: 0.405 µM
- TGI [57]: 5.13 µM
- GI50 [58]: 4.67 µM
- TGI [58]: 19.1 µM
